According to ChEMBL document CHEMBL3877299, “Imidazopyridine-fused [1,3]-diazepinones part 2: Structure-activity relationships and antiproliferative activity against melanoma cells” (Eur J Med Chem, 2017):

How the values were obtained:
Type in all cases: functional
[1] = Growth inhibition of human HL-60(TB) cells assessed as cell growth at 10 uM incubated for 48 hrs by sulforhodamine B assay relative to control; settings: HL-60, 48 h, read-out: Activity
[2] = Growth inhibition of human K562 cells assessed as cell growth at 10 uM incubated for 48 hrs by sulforhodamine B assay relative to control; settings: K562, 48 h, read-out: Activity
[3] = Growth inhibition of human RPMI8226 cells assessed as cell growth at 10 uM incubated for 48 hrs by sulforhodamine B assay relative to control; settings: RPMI-8226, 48 h, read-out: Activity
[4] = Growth inhibition of human EKVX cells assessed as cell growth at 10 uM incubated for 48 hrs by sulforhodamine B assay relative to control; settings: read-out: Activity
[5] = Growth inhibition of human HOP62 cells assessed as cell growth at 10 uM incubated for 48 hrs by sulforhodamine B assay relative to control; settings: HOP-62, 48 h, read-out: Activity
[6] = Growth inhibition of human NCI-H226 cells assessed as cell growth at 10 uM incubated for 48 hrs by sulforhodamine B assay relative to control; settings: NCI-H226, 48 h, read-out: Activity
[7] = Growth inhibition of human NCI-H322M cells assessed as cell growth at 10 uM incubated for 48 hrs by sulforhodamine B assay relative to control; settings: read-out: Activity
[8] = Growth inhibition of human COLO205 cells assessed as cell growth at 10 uM incubated for 48 hrs by sulforhodamine B assay relative to control; settings: COLO 205, 48 h, read-out: Activity
[9] = Growth inhibition of human HT-29 cells assessed as cell growth at 10 uM incubated for 48 hrs by sulforhodamine B assay relative to control; settings: HT-29, 48 h, read-out: Activity
[10] = Growth inhibition of human KM12 cells assessed as cell growth at 10 uM incubated for 48 hrs by sulforhodamine B assay relative to control; settings: KM12, 48 h, read-out: Activity
[11] = Growth inhibition of human SW620 cells assessed as cell growth at 10 uM incubated for 48 hrs by sulforhodamine B assay relative to control; settings: SW-620, 48 h, read-out: Activity
[12] = Growth inhibition of human SF268 cells assessed as cell growth at 10 uM incubated for 48 hrs by sulforhodamine B assay relative to control; settings: SF-268, 48 h, read-out: Activity
[13] = Growth inhibition of human SF295 cells assessed as cell growth at 10 uM incubated for 48 hrs by sulforhodamine B assay relative to control; settings: SF-295, 48 h, read-out: Activity
[14] = Growth inhibition of human SF539 cells assessed as cell growth at 10 uM incubated for 48 hrs by sulforhodamine B assay relative to control; settings: SF-539, 48 h, read-out: Activity
[15] = Growth inhibition of human SNB19 cells assessed as cell growth at 10 uM incubated for 48 hrs by sulforhodamine B assay relative to control; settings: SNB-19, 48 h, read-out: Activity
[16] = Growth inhibition of human SNB75 cells assessed as cell growth at 10 uM incubated for 48 hrs by sulforhodamine B assay relative to control; settings: SNB-75, 48 h, read-out: Activity
[17] = Growth inhibition of human U251 cells assessed as cell growth at 10 uM incubated for 48 hrs by sulforhodamine B assay relative to control; settings: U-251, 48 h, read-out: Activity
[18] = Growth inhibition of human LOXIMVI cells assessed as cell growth at 10 uM incubated for 48 hrs by sulforhodamine B assay relative to control; settings: LOX IMVI, read-out: Activity
[19] = Growth inhibition of human MALME-3M cells assessed as cell growth at 10 uM incubated for 48 hrs by sulforhodamine B assay relative to control; settings: read-out: Activity
[20] = Growth inhibition of human MDA-MB-435 cells assessed as cell growth at 10 uM incubated for 48 hrs by sulforhodamine B assay relative to control; settings: MDA-MB-435, 48 h, read-out: Activity
[21] = Growth inhibition of human SK-MEL-5 cells assessed as cell growth at 10 uM incubated for 48 hrs by sulforhodamine B assay relative to control; settings: SK-MEL-5, 48 h, read-out: Activity
[22] = Growth inhibition of human UACC257 cells assessed as cell growth at 10 uM incubated for 48 hrs by sulforhodamine B assay relative to control; settings: UACC-257, 48 h, read-out: Activity
[23] = Growth inhibition of human OVCAR3 cells assessed as cell growth at 10 uM incubated for 48 hrs by sulforhodamine B assay relative to control; settings: OVCAR-3, 48 h, read-out: Activity
[24] = Growth inhibition of human OVCAR4 cells assessed as cell growth at 10 uM incubated for 48 hrs by sulforhodamine B assay relative to control; settings: OVCAR-4, 48 h, read-out: Activity
[25] = Growth inhibition of human OVCAR5 cells assessed as cell growth at 10 uM incubated for 48 hrs by sulforhodamine B assay relative to control; settings: OVCAR-5, 48 h, read-out: Activity
[26] = Growth inhibition of human OVCAR8 cells assessed as cell growth at 10 uM incubated for 48 hrs by sulforhodamine B assay relative to control; settings: OVCAR-8, 48 h, read-out: Activity
[27] = Growth inhibition of human NCI/ADR-RES cells assessed as cell growth at 10 uM incubated for 48 hrs by sulforhodamine B assay relative to control; settings: read-out: Activity
[28] = Growth inhibition of human A498 cells assessed as cell growth at 10 uM incubated for 48 hrs by sulforhodamine B assay relative to control; settings: A498, 48 h, read-out: Activity
[29] = Growth inhibition of human Caki1 cells assessed as cell growth at 10 uM incubated for 48 hrs by sulforhodamine B assay relative to control; settings: CAKI-1, 48 h, read-out: Activity
[30] = Growth inhibition of human RXF393 cells assessed as cell growth at 10 uM incubated for 48 hrs by sulforhodamine B assay relative to control; settings: RXF 393, 48 h, read-out: Activity
[31] = Growth inhibition of human SN12C cells assessed as cell growth at 10 uM incubated for 48 hrs by sulforhodamine B assay relative to control; settings: read-out: Activity
[32] = Growth inhibition of human PC3 cells assessed as cell growth at 10 uM incubated for 48 hrs by sulforhodamine B assay relative to control; settings: PC-3, 48 h, read-out: Activity
[33] = Growth inhibition of human MCF7 cells assessed as cell growth at 10 uM incubated for 48 hrs by sulforhodamine B assay relative to control; settings: MCF7, 48 h, read-out: Activity
[34] = Growth inhibition of human Hs 578T cells assessed as cell growth at 10 uM incubated for 48 hrs by sulforhodamine B assay relative to control; settings: read-out: Activity
[35] = Growth inhibition of human MDA-MB-468 cells assessed as cell growth at 10 uM incubated for 48 hrs by sulforhodamine B assay relative to control; settings: MDA-MB-468, 48 h, read-out: Activity

| SMILES | growth at 10 µM [1] [%] | growth at 10 µM [2] [%] | growth at 10 µM [3] [%] | growth at 10 µM [4] [%] | growth at 10 µM [5] [%] | growth at 10 µM [6] [%] | growth at 10 µM [7] [%] | growth at 10 µM [8] [%] | growth at 10 µM [9] [%] | growth at 10 µM [10] [%] | growth at 10 µM [11] [%] | growth at 10 µM [12] [%] | growth at 10 µM [13] [%] | growth at 10 µM [14] [%] | growth at 10 µM [15] [%] | growth at 10 µM [16] [%] | growth at 10 µM [17] [%] | growth at 10 µM [18] [%] | growth at 10 µM [19] [%] | growth at 10 µM [20] [%] | other results |
| --- | --- | --- | --- | --- | --- | --- | --- | --- | --- | --- | --- | --- | --- | --- | --- | --- | --- | --- | --- | --- | --- |
| C[C@@H]1NC(c2ccc3ccccc3c2)=Nc2nc3ccccn3c2C1=O | -6.75 | 27.6 | 43.8 | 75.6 | 36.7 | 64.5 | 73.2 | 22.8 | 5.93 | 30.3 | 26.3 | 58 | 14.9 | 37.2 | 53.3 | 37.1 | 32.5 | 48.5 | 42.3 | -24.6 | growth at 10 µM [21]: 35.3%; growth at 10 µM [22]: 40.9%; growth at 10 µM [23]: 16.9%; growth at 10 µM [24]: 74.5%; growth at 10 µM [25]: 90.6%; growth at 10 µM [26]: 54.4%; growth at 10 µM [27]: 44.5%; growth at 10 µM [28]: 47.2%; growth at 10 µM [29]: 38.5%; growth at 10 µM [30]: 49.9%; growth at 10 µM [31]: 60.1%; growth at 10 µM [32]: 52%; growth at 10 µM [33]: 25.2%; growth at 10 µM [34]: 29.3%; growth at 10 µM [35]: 50.5% |
| CC(C)(C)OC[C@@H]1NC(c2ccc(Br)cc2)=Nc2nc3ccccn3c2C1=O | 33.1 | 25.2 | 67.5 | 81.6 | 54.5 | 78.1 | 84.8 | 62.6 | 21.8 | 49 | 40.3 | 74.3 | 30.9 | 75.8 | 76.5 | 77.4 | 63.5 | 58.7 | 51.5 | -13.8 | growth at 10 µM [21]: 38.4%; growth at 10 µM [22]: 62.3%; growth at 10 µM [23]: 34.2%; growth at 10 µM [24]: 82.3%; growth at 10 µM [25]: 105%; growth at 10 µM [26]: 79.5%; growth at 10 µM [27]: 39.7%; growth at 10 µM [28]: 66.9%; growth at 10 µM [29]: 64.2%; growth at 10 µM [30]: 61.6%; growth at 10 µM [31]: 84.1%; growth at 10 µM [32]: 53.4%; growth at 10 µM [33]: 27.8%; growth at 10 µM [34]: 65.2%; growth at 10 µM [35]: 45.6% |
| C[C@@H]1NC(c2ccc(Cl)cc2Cl)=Nc2nc3ccccn3c2C1=O | 0.46 | 23.6 | 75.2 | 82.5 | 52.6 | 75.7 | 63.6 | 22.3 | 7.68 | 23.8 | 25.2 | 58.9 | 14.5 | 53 | 60.8 | 58.7 | 41.4 | 51.3 | 43.7 | -16.6 | growth at 10 µM [21]: 39.6%; growth at 10 µM [22]: 52.4%; growth at 10 µM [23]: 2.44%; growth at 10 µM [24]: 89.5%; growth at 10 µM [25]: 91.2%; growth at 10 µM [26]: 68.1%; growth at 10 µM [27]: 44.5%; growth at 10 µM [28]: 60.7%; growth at 10 µM [29]: 47.2%; growth at 10 µM [30]: 80.2%; growth at 10 µM [31]: 75.8%; growth at 10 µM [32]: 39.1%; growth at 10 µM [33]: 16.8%; growth at 10 µM [34]: 52%; growth at 10 µM [35]: 53.9% |
| C[C@@H]1NC(c2ccc(Cl)cc2)=Nc2nc3ccccn3c2C1=O | 102 | 70 | 91.3 | 92.4 | 73.3 | 88 | 87 | 91.8 | 85.4 | 64.2 | 83.6 | 87.3 | 92.4 | 84.7 | 93.2 | 92.5 | 92.5 | 88.2 | 76.2 | 32.9 | growth at 10 µM [21]: 87.7%; growth at 10 µM [22]: 80.7%; growth at 10 µM [23]: 84.3%; growth at 10 µM [24]: 109%; growth at 10 µM [25]: 109%; growth at 10 µM [26]: 90.3%; growth at 10 µM [27]: 85.6%; growth at 10 µM [28]: 118%; growth at 10 µM [29]: 84.6%; growth at 10 µM [30]: 97.9%; growth at 10 µM [31]: 96.8%; growth at 10 µM [32]: 90%; growth at 10 µM [33]: 69.2%; growth at 10 µM [34]: 87.1%; growth at 10 µM [35]: 97.9% |
